Structures are written as SMILES.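 1) Cells in 96-well plates. 2) Compound, 48 h, 5 concentrations. 3) Linear interpolation between surrounding doses. 4) Unreached endpoint = highest concentration. Definition used: TGI = concentration required for complete inhibition of growth.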 Where only a bound is given, the exact number is not on record here.

Test systems include HOP-62 NSCLC; OVCAR-5 ovarian; NCI-H23 lung; SNB-75 CNS; UACC-257 melanoma; 786-0 renal; PC-3 prostate; COLO 205 colon; HCC-2998 colon; UACC-62 melanoma; CCRF-CEM leukemia; SN12C renal; MDA-N; MOLT-4 leukemia; A549 NSCLC.
Holding throughout (test): DTP human tumour cell line panel, 48 h

On to `CN1CC=C(OP(=O)(NCc2ccccc2)N(CCCl)CCCl)CC1` (configuration not stated), for which the TGI in the assay with HOP-62 NSCLC, in the assay on OVCAR-5 ovarian, in the assay with NCI-H23 lung, in the assay on SNB-75 CNS, in the assay on UACC-257 melanoma and in the assay on 786-0 renal was over 100 µM in each case. Also, the TGI in the assay with PC-3 prostate, in the assay with COLO 205 colon, in the assay with HCC-2998 colon, in the assay on UACC-62 melanoma, in the assay on CCRF-CEM leukemia and with SN12C renal was over 100 µM in each case. In addition, the total growth inhibition concentration (TGI) with MDA-N and in the assay with MOLT-4 leukemia was over 100 µM each time.

As to `CCCCCCN(C(=O)Oc1ccccc1)C(C#N)c1ccccc1` (configuration not stated), the TGI in the assay on HOP-62 NSCLC, in the assay on OVCAR-5 ovarian, in the assay on NCI-H23 lung, in the assay on SNB-75 CNS, in the assay on UACC-257 melanoma and with 786-0 renal was over 100 µM each time. The TGI in the assay with PC-3 prostate, in the assay on COLO 205 colon, with HCC-2998 colon, with UACC-62 melanoma, in the assay with CCRF-CEM leukemia and in the assay with SN12C renal was over 100 µM in each case. For the same compound, the concentration for total growth inhibition (TGI) in the assay on A549 NSCLC, with MDA-N and in the assay with MOLT-4 leukemia was over 100 µM in each case.

For the compound `CCCOC(=O)c1cc(C(=CCC[C@H]2CC[C@@]3(C)[C@@H](CC[C@@H]4[C@@H]3CC[C@]3(C)[C@@H](C(C)CCCC(C)C)CC[C@@H]43)C2)c2cc(Cl)c(O)c(C(=O)OCCC)c2)cc(Cl)c1O` (some centres not stated), the concentration for total growth inhibition (TGI) in the assay with HOP-62 NSCLC, in the assay on NCI-H23 lung, with SNB-75 CNS, in the assay with 786-0 renal, in the assay on PC-3 prostate and with COLO 205 colon was over 50 µM throughout. For the same compound, the TGI with HCC-2998 colon, in the assay on UACC-62 melanoma, in the assay on CCRF-CEM leukemia, with SN12C renal, with MDA-N and in the assay on MOLT-4 leukemia was over 50 µM in each case.

For `O=c1nc2n(CCO)c(-c3ccccc3)c(-c3ccccc3)nc-2c(=O)[nH]1`, the TGI in the assay on HOP-62 NSCLC, in the assay with OVCAR-5 ovarian, in the assay on NCI-H23 lung, in the assay on SNB-75 CNS, in the assay on UACC-257 melanoma and in the assay with 786-0 renal was over 100 µM each time. Besides, the TGI with PC-3 prostate, in the assay with COLO 205 colon, in the assay with HCC-2998 colon, with UACC-62 melanoma, with CCRF-CEM leukemia and with SN12C renal was over 100 µM in each case. Further, the TGI with A549 NSCLC, in the assay on MDA-N and in the assay with MOLT-4 leukemia was over 100 µM each time.

With `CCn1c(=O)c2c(=O)[nH][nH]c2c2ccccc21`, the TGI in the assay with HOP-62 NSCLC, with OVCAR-5 ovarian, with NCI-H23 lung, in the assay on SNB-75 CNS, in the assay with UACC-257 melanoma and in the assay on 786-0 renal was over 100 µM each time. In addition, the TGI with PC-3 prostate, with COLO 205 colon, with HCC-2998 colon, in the assay on CCRF-CEM leukemia, in the assay on SN12C renal and in the assay with A549 NSCLC was over 100 µM each time. In addition, the total growth inhibition concentration (TGI) with MDA-N and in the assay with MOLT-4 leukemia was over 100 µM throughout.

Turning to `CC1C2CC(C(C3C(=O)C4CC3C(C)(C)C4C)C2=O)C1(C)C` (configuration not stated), the TGI with HOP-62 NSCLC, in the assay on OVCAR-5 ovarian, with NCI-H23 lung, in the assay with SNB-75 CNS, in the assay on UACC-257 melanoma and in the assay on 786-0 renal was over 100 µM each time. Further, the concentration for total growth inhibition (TGI) in the assay on PC-3 prostate, with COLO 205 colon, in the assay with HCC-2998 colon, with UACC-62 melanoma, in the assay with CCRF-CEM leukemia and in the assay with SN12C renal was over 100 µM each time. For the same compound, the concentration for total growth inhibition (TGI) in the assay with A549 NSCLC, with MDA-N and in the assay on MOLT-4 leukemia was over 100 µM throughout.

Consider `Cc1ccc(S(=O)(=O)N(c2ccccc2F)C2CCCCC2O)cc1` (configuration not stated), for which the TGI (in general, the concentration giving total growth inhibition) with HOP-62 NSCLC was over 100 µM; in the assay on OVCAR-5 ovarian, over 100 µM; in the assay on NCI-H23 lung it was over 100 µM; in the assay on SNB-75 CNS it was 88.5 µM; with UACC-257 melanoma, 5.64 µM; in the assay with 786-0 renal, over 100 µM. In addition, the TGI was over 100 µM in the assay on PC-3 prostate; 71.3 µM in the assay on COLO 205 colon; over 100 µM in the assay on HCC-2998 colon; over 100 µM in the assay with UACC-62 melanoma; over 100 µM in the assay with CCRF-CEM leukemia; over 100 µM in the assay with SN12C renal. Moreover, the TGI is over 100 µM in the assay with A549 NSCLC and 50.1 µM with MDA-N.

`CCCCCCC(N)(CCCCCC)C(=O)Nn1c(C)ccc1C`: the TGI in the assay on HOP-62 NSCLC, in the assay on OVCAR-5 ovarian, in the assay with NCI-H23 lung, in the assay with SNB-75 CNS, in the assay on UACC-257 melanoma and with 786-0 renal was over 100 µM each time. The TGI in the assay with PC-3 prostate, in the assay on COLO 205 colon, in the assay with HCC-2998 colon, with UACC-62 melanoma, with CCRF-CEM leukemia and with SN12C renal was over 100 µM in each case. Besides, the TGI with A549 NSCLC was 65.3 µM; in the assay on MDA-N, over 100 µM; with MOLT-4 leukemia, over 100 µM.

Consider `O=C(Cc1ccccc1)N/N=C(/CCN1CCCC1)CC(c1ccccc1)c1c(O)c2ccccc2oc1=O` (configuration not stated), for which the TGI in the assay on OVCAR-5 ovarian, with NCI-H23 lung, in the assay on SNB-75 CNS, in the assay with UACC-257 melanoma, in the assay on 786-0 renal and with PC-3 prostate was over 100 µM each time. In addition, the TGI with COLO 205 colon is 57.5 µM; in the assay with HCC-2998 colon it was over 100 µM; in the assay on UACC-62 melanoma it was over 100 µM; with CCRF-CEM leukemia it was over 100 µM; in the assay with A549 NSCLC it was over 100 µM; in the assay on MDA-N it was over 100 µM. In addition, the TGI in the assay on MOLT-4 leukemia was over 100 µM.

These data come from PubChem BioAssay (NCI).
